Test results from ChEMBL document CHEMBL1201862, “PubChem BioAssay data set” (2004).
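The compound was tested at five concentrations on cells cultured in 96-well plates, with a 48-hour exposure period. Here, GI50 denotes the concentration required for 50% inhibition of growth.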 Active and inactive are the calls of the source. No stated cut-off is given here; in the data, active = GI50 up to about 1.1 µM and inactive = higher.

Key:
Test in all cases: growth of human tumour cells (NCI), 48 h
TK-10 = test system: TK-10
CCRF-CEM = test system: CCRF-CEM
SW-620 = test system: SW-620
OVCAR-4 = test system: OVCAR-4
KM12 = test system: KM12
Malme-3M = test system: Malme-3M
K562 = test system: K562
UACC-62 = test system: UACC-62
SNB-75 = test system: SNB-75
M14 = test system: M14
NCI-H460 = test system: NCI-H460
SK-MEL-5 = test system: SK-MEL-5
SK-MEL-2 = test system: SK-MEL-2
HCT-15 = test system: HCT-15
SF-295 = test system: SF-295
OVCAR-8 = test system: OVCAR-8
HOP-62 = test system: HOP-62
ACHN = test system: ACHN
HCC 2998 = test system: HCC 2998

Measured: GI50

Cc1ccc(C)c(NC(=O)C(=O)CC(=O)C2CCOC2=O)c1 (stereo unspecified)
> 100 µM: HCT-15
inactive: TK-10 > 100 µM | CCRF-CEM > 100 µM | SW-620 > 100 µM | OVCAR-4 > 100 µM | KM12 > 100 µM | Malme-3M > 100 µM | K562 > 100 µM | UACC-62 > 100 µM | SNB-75 67.5 µM | M14 > 100 µM | NCI-H460 > 100 µM | SK-MEL-5 > 100 µM | SK-MEL-2 > 100 µM | SF-295 > 100 µM | OVCAR-8 > 100 µM | HOP-62 > 100 µM | ACHN > 100 µM

CCOC(=O)C(Cl)(NC(=O)OCc1ccccc1)C(F)(F)F (stereo unspecified)
> 100 µM: HCT-15
inactive: TK-10 > 100 µM | CCRF-CEM > 100 µM | SW-620 > 100 µM | OVCAR-4 > 100 µM | KM12 > 100 µM | HCC 2998 > 100 µM | Malme-3M > 100 µM | K562 > 100 µM | SNB-75 > 100 µM | M14 > 100 µM | SK-MEL-5 > 100 µM | SK-MEL-2 > 100 µM | SF-295 > 100 µM | OVCAR-8 > 100 µM | HOP-62 > 100 µM | ACHN > 100 µM

O=C(c1ccccc1O)c1cc(-c2ncc3c(=O)c4ccccc4oc3n2)c(-c2ccccc2O)[nH]c1=O
inactive: CCRF-CEM 26 µM | SW-620 19.2 µM | OVCAR-4 22.5 µM | KM12 30 µM | HCC 2998 17 µM | Malme-3M 30 µM | K562 19.7 µM | UACC-62 22.9 µM | SNB-75 19.2 µM | NCI-H460 23.3 µM | SK-MEL-5 12 µM | SK-MEL-2 22.1 µM | SF-295 11.4 µM | OVCAR-8 30.7 µM | HOP-62 18.5 µM
24.9 µM: HCT-15

CC(=O)c1ccc(OCC(O)CO)cc1 (stereo unspecified)
> 100 µM: HCT-15
inactive: TK-10 > 100 µM | CCRF-CEM > 100 µM | SW-620 14.9 µM | OVCAR-4 > 100 µM | KM12 > 100 µM | HCC 2998 > 100 µM | Malme-3M > 100 µM | K562 61.9 µM | UACC-62 > 100 µM | SNB-75 > 100 µM | M14 > 100 µM | NCI-H460 > 100 µM | SK-MEL-5 > 100 µM | SF-295 > 100 µM | OVCAR-8 > 100 µM | HOP-62 > 100 µM | ACHN > 100 µM

COC(=O)C1=C(C(=O)OC)SC2(S1)C1=C(CCC1)SC(C(=O)OC)=C2C(=O)OC
6.08 µM: HCT-15
inactive: TK-10 14.9 µM | CCRF-CEM 2.17 µM | SW-620 2.43 µM | OVCAR-4 15.1 µM | KM12 15.1 µM | HCC 2998 16.3 µM | Malme-3M 17.9 µM | K562 3.09 µM | UACC-62 15 µM | M14 18.3 µM | NCI-H460 5.37 µM | SK-MEL-5 14.9 µM | SK-MEL-2 18.8 µM | SF-295 15.6 µM | OVCAR-8 10.2 µM | HOP-62 12.7 µM | ACHN 12.3 µM

NCc1ccccc1C1CSCSC1
> 100 µM: HCT-15
inactive: TK-10 > 100 µM | CCRF-CEM > 100 µM | SW-620 > 100 µM | OVCAR-4 > 100 µM | KM12 > 100 µM | Malme-3M > 100 µM | K562 > 100 µM | UACC-62 > 100 µM | SNB-75 > 100 µM | NCI-H460 > 100 µM | SK-MEL-5 > 100 µM | SK-MEL-2 > 100 µM | SF-295 > 100 µM | OVCAR-8 > 100 µM | ACHN > 100 µM

COC(=O)C(C/C=C(\C)c1ccccc1)C(C)=O (stereo unspecified)
66.1 µM: HCT-15
inactive: CCRF-CEM 40.9 µM | SW-620 > 100 µM | OVCAR-4 56 µM | KM12 58.2 µM | HCC 2998 > 100 µM | Malme-3M > 100 µM | K562 44.9 µM | UACC-62 > 63.4 µM | SNB-75 47.3 µM | NCI-H460 85.3 µM | SK-MEL-5 59.6 µM | SK-MEL-2 52.7 µM | SF-295 18.4 µM | OVCAR-8 > 100 µM | HOP-62 > 100 µM

CSc1nncc2[nH]c(C)nc12
> 100 µM: HCT-15
inactive: TK-10 > 100 µM | CCRF-CEM > 100 µM | SW-620 > 100 µM | OVCAR-4 > 100 µM | KM12 > 100 µM | HCC 2998 > 100 µM | Malme-3M > 100 µM | K562 > 100 µM | UACC-62 > 100 µM | SNB-75 > 100 µM | M14 > 100 µM | SK-MEL-5 > 100 µM | SK-MEL-2 > 100 µM | SF-295 > 100 µM | OVCAR-8 > 100 µM | HOP-62 > 100 µM | ACHN > 100 µM

O=C(CC1(O)C(=O)Nc2ccccc21)c1ccc2ccccc2c1 (stereo unspecified)
> 100 µM: HCT-15
inactive: TK-10 > 100 µM | SW-620 > 100 µM | OVCAR-4 > 100 µM | HCC 2998 > 100 µM | Malme-3M > 100 µM | K562 > 100 µM | UACC-62 > 100 µM | SNB-75 78 µM | M14 > 100 µM | NCI-H460 > 100 µM | SK-MEL-5 > 100 µM | SK-MEL-2 > 100 µM | SF-295 > 100 µM | OVCAR-8 > 100 µM | HOP-62 > 100 µM | ACHN > 100 µM

CCOC(=O)C1=C(C(C)=O)CSC(c2ccccc2)=N1
> 100 µM: HCT-15
inactive: CCRF-CEM > 100 µM | SW-620 > 100 µM | OVCAR-4 > 100 µM | KM12 > 100 µM | HCC 2998 > 100 µM | Malme-3M > 100 µM | K562 > 100 µM | UACC-62 > 100 µM | SNB-75 > 100 µM | NCI-H460 > 100 µM | SK-MEL-5 > 100 µM | SK-MEL-2 > 100 µM | SF-295 > 100 µM | OVCAR-8 > 100 µM

COc1cccc(-c2nc3c(C(=O)NCCN(C)C)cccc3[nH]2)c1
inactive: CCRF-CEM 8.05 µM | SW-620 12.7 µM | OVCAR-4 26.3 µM | KM12 20.8 µM | HCC 2998 15.6 µM | Malme-3M 14 µM | K562 15.1 µM | UACC-62 16.7 µM | SNB-75 21.3 µM | NCI-H460 11.1 µM | SK-MEL-5 16.7 µM | SK-MEL-2 18.8 µM | SF-295 16.2 µM | OVCAR-8 15.7 µM | HOP-62 15.1 µM
18.9 µM: HCT-15

COC(=O)[C@]1(c2ccc(N(C)C)cc2OC)C[C@@H]2CCCN(CCc3c1[nH]c1ccccc31)C2
inactive: CCRF-CEM 25 µM | SW-620 40.3 µM | OVCAR-4 13.3 µM | KM12 23.1 µM | HCC 2998 15.3 µM | Malme-3M 15.9 µM | K562 17.3 µM | UACC-62 18 µM | SNB-75 12.4 µM | NCI-H460 16.7 µM | SK-MEL-5 17.2 µM | SK-MEL-2 20.3 µM | SF-295 > 43.7 µM | OVCAR-8 24.9 µM | HOP-62 30.3 µM
20.8 µM: HCT-15
